SMILES strings stand for the structures. Read-outs that look alike come from different tables or passages of the source.

Common to all, as to type: in vivo
For assay [1], the system named is Adult male AJ mice. The assay can be described thus: Tail suspension test (TST). Further details: key: +++ = <1.0 mg/kg; ++ = 1-10 mg/kg; + = 10-30 mg/kg; NE = no effect. As to conditions: oral gavage 30 min before test; time immobile. The source says: The tail suspension test (TST) is a rodent screening test for potential (human) antidepressant drugs. It is based on the assumption that an animal will actively try to escape an aversive (stressful) stimulus. If escape is impossible, the animal will eventually stop trying (“give up”). In the TST, a mouse is suspended by the tail so that its body dangles in the air, head downward. Mice initially struggle to face upward and climb to a solid surface. When the animal stops struggling and hangs immobile it is considered to have “given up”. Shorter periods of immobility are characteristic of antidepressant-like activity. Accordingly, longer periods of immobility are considered indicative of a depressive-like state. It has been shown that treatment with an antidepressant drug will decrease the time the animal spends immobile. See generally L. Stem et al., Psychopharmacology (Berl). 1985; 85(3):367-70; B. Thierry et al., Psychopharmacology 1986; 90:284-85.
Procedure. Adult male AJ mice from Jackson Laboratories received vehicle (sterile water) or test compound orally by gavage, or the positive control desipramine (20 mg/kg, i.p.), in 10 mL/kg injection volumes, 30 min before being subjected to the Tail Suspension Test. In this test, mice are placed in the Tail Suspension chambers (white polyvinylchloride cubicles measuring 33×33×31.75 cm Med Associates, Inc. St. Albans, Vt.) by a piece of transparent (Scotch®) tape attached to the tail, from about the mid-tail, with approximately 2 cm of tape past the end of the tail for 10 min during which the time spent immobile is measured. A reduction in total time immobile relative to the vehicle condition indicates an antidepressant drug-like response.

For assay [2], the system named is Male C57Bl/6J mice. As to the kind of experiment: Phencyclidine (PCP)-induced hyperlocomotion. The conditions noted are these: PCP 2.5 mg/kg s.c.; distance traveled. The protocol: Phencyclidine (PCP)-Induced Hyperlocomotion
The PCP-induced hyperlocomotion assay is an indicator of antipsychotic-like activity. Male C57Bl/6J mice (20-26 g) were administered vehicle or test compound and placed in holding cages for 30 minutes, after which they were placed in the locomotor activity chambers for 30 minutes of baseline capture. The test chambers are Plexiglas rectangular chambers (24×45 cm) that fit inside two steel frames (9.5×18 inches) and are fitted with two-dimensional 4×8 beam grids to monitor horizontal and vertical locomotor activity. Total distance traveled was measured from horizontal beam breaks as the animal traveled. Following the 30 minute baseline period, all […] were injected with saline or PCP (2.5 mg/kg, s.c.) and returned to the locomotor activity chambers for a 60 minute test session. A compound with antipsychotic-like activity will decrease the distance traveled following administration of PCP. Data were analyzed by analysis of variance (ANOVA) followed by post-hoc comparisons with Fisher Tests when appropriate.

Assay [3] relates to mice. The assay can be described thus: Neuropharmacological Assay (SmartCube). As to conditions: for minimal effective dose: Mus musculus, read-out: POTENCY (minimal effective dose, MED); for AD: ADHD (SmartCube probability) / AG: analgesic (SmartCube probability) / AX: anxiolytic (SmartCube probability) / CE: cognitive enhancer (SmartCube probability) / DP: anti-depressant (SmartCube probability) / MS: mood stabilizer (SmartCube probability) / PS: anti-psychotic (SmartCube probability) / SD: sedative hypnotic (SmartCube probability) / UN: uncharacterized CNS activity (SmartCube probability): mice, i.p. 15 min before test, most efficacious dose(s) of 3 doses. In short, it runs like this: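 Behavior of treated mice captured by digital video and matched algorithmically against reference drug classes, yielding a class probability at the most efficacious of 3 i.p. doses (15 min pretreatment, NMP/PEG/propylene glycol vehicle). Potency given as MED, the mpk dose reaching ≥50% total activity across usually 0.3–30 mpk.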

The test system of assay [4] is Male C57Bl/6J mice. As to the kind of experiment: Amphetamine-induced hyperlocomotion assay. Further details: key: +++ = <1.0 mg/kg; ++ = 1-10 mg/kg; + = 10-30 mg/kg; NE = no effect. The conditions noted are these: AMPH 4 mg/kg ip; stimulant-induced hyperactivity. As for the experimental part: Amphetamine-Induced Hyperlocomotion Assay
Amphetamine (AMPH) is frequently used to induce or mimic a manic-like state. The antimanic-like effects of test compounds were evaluated in male C57Bl/6J mice. Mice were acclimatized to the experimental room for at least 1 hour prior to testing. The mice (n=10 per group) were administered vehicle or test compound and placed in the open field (OF) chambers for 30 minutes of baseline activity measurement. The mice were then injected with either water or AMPH (4 mg/kg, ip) and placed back in the OF chambers for a 60-minute testing session during which, the effects of test compounds on stimulant-induced hyperactivity behaviors (total distance traveled, rearing and stereotypy) were measured. Data were analyzed by analysis of variance (ANOVA) followed by post-hoc comparisons with Fisher Tests when appropriate.

Assay [5] relates to Male Balb/cJ mice. As to the kind of experiment: Forced Swim test (FST). As to conditions: 30 minute pretreatment; time immobile over 6 minute trial. The protocol: Forced Swim Test Procedures
The Forced Swim test (FST) is an indicator of the antidepressant-like activity of a test compound. Male Balb/cJ mice (26-31 g) were given a 30 minute pretreatment with vehicle (sterile water), sertraline control or test compound. The FST consists of one 6 minute session of forced swimming in individual opaque cylinders containing water at a temperature of 23±2° C. The mouse will swim before “giving up” and becoming immobile, the time spent immobile was recorded over the 6 minute trial. A compound with antidepressant-like activity will decrease the time the mouse is immobile over the 6 minute trial. Data were analyzed by analysis of variance (ANOVA) followed by post-hoc comparisons with Fisher Tests when appropriate.

The mark [6] stands for this setting: MED = dose having 50% or more total activity in SmartCube.

For `CNC[C@@H]1OCCc2cccc(F)c21` [Example 26, (R)-1-(8-fluoroisochroman-1-yl)-N-methylmethanamine], in assay [1], the “TST: efficacious dose” value is “NE”. Also, the “PCP: efficacious dose” value in assay [2] is given as “+++ (+++ = <1.0 mg/kg)”. For the same molecule, in assay [3] (setting [6]), the minimal effective dose is less than 3 mg/kg. Moreover, in assay [3], the “AD: ADHD (SmartCube probability)” value is recorded as “+ (LOQ≤ + <5%)”, the “AG: analgesic (SmartCube probability)” value is “++ (5%≤ ++ <25%)”, the “AX: anxiolytic (SmartCube probability)” value was “++ (5%≤ ++ <25%)” and the “CE: cognitive enhancer (SmartCube probability)” value (“CE: cognitive enhancer” below) is on record as “++ (5%≤ ++ <25%)”. Also, in assay [3], the “DP: anti-depressant (SmartCube probability)” value (shortened to “DP: anti-depressant”) was “++++ (50%≤ ++++)”, the “MS: mood stabilizer (SmartCube probability)” value (from here on “MS: mood stabilizer”) was “+ (LOQ≤ + <5%)”, the “PS: anti-psychotic (SmartCube probability)” value (“PS: anti-psychotic” for short) is given as “++ (5%≤ ++ <25%)” and the “SD: sedative hypnotic (SmartCube probability)” value (“SD: sedative hypnotic” below) was “++ (5%≤ ++ <25%)”. Moreover, the “UN: uncharacterized CNS activity (SmartCube probability)” value (from here on “UN: uncharacterized CNS activity”) in assay [3] is on record as “+++ (25%≤ +++ <50%)”. The “AMPH: efficacious dose” value in assay [4] was “+ (+ = 10-30 mg/kg)”. The “FST: efficacious dose” value in assay [5] is “+++ (+++ = <1.0 mg/kg)”.
With `CNC[C@@H]1OCCc2cc(F)ccc21` [Example 17, (R)-1-(6-fluoroisochroman-1-yl)-N-methylmethanamine], the “TST: efficacious dose” value in assay [1] is given as “NE”. For the same molecule, in assay [3] (setting [6]), the minimal effective dose is less than 3 mg/kg. In addition, in assay [3], the “AD: ADHD (SmartCube probability)” value is recorded as “+ (LOQ≤ + <5%)”, the “AG: analgesic (SmartCube probability)” value is recorded as “++ (5%≤ ++ <25%)”, the “AX: anxiolytic (SmartCube probability)” value is given as “++ (5%≤ ++ <25%)” and the “CE: cognitive enhancer” value is “+++ (25%≤ +++ <50%)”. Also, in assay [3], the “DP: anti-depressant” value is “++ (5%≤ ++ <25%)”, the “MS: mood stabilizer” value is given as “+ (LOQ≤ + <5%)”, the “PS: anti-psychotic” value is reported as “+++ (25%≤ +++ <50%)” and the “SD: sedative hypnotic” value is “+ (LOQ≤ + <5%)”. The “UN: uncharacterized CNS activity” value in assay [3] is on record as “++ (5%≤ ++ <25%)”. Further, the “AMPH: efficacious dose” value in assay [4] is listed as “++ (++ = 1-10 mg/kg)”.
Turning to `CNC[C@@H]1OCCc2c(F)cccc21` [Example 14, (R)-1-(5-fluoroisochroman-1-yl)-N-methylmethanamine], the “TST: efficacious dose” value in assay [1] is listed as “+ (+ = 10-30 mg/kg)”. For the same molecule, the minimal effective dose in assay [3] (setting [6]) was less than 3 mg/kg. In assay [3], the “AD: ADHD (SmartCube probability)” value is reported as “+ (LOQ≤ + <5%)”, the “AG: analgesic (SmartCube probability)” value is listed as “++ (5%≤ ++ <25%)”, the “AX: anxiolytic (SmartCube probability)” value is on record as “++ (5%≤ ++ <25%)” and the “CE: cognitive enhancer” value is given as “++ (5%≤ ++ <25%)”. For the same molecule, in assay [3], the “DP: anti-depressant” value is given as “++++ (50%≤ ++++)”, the “MS: mood stabilizer” value is reported as “++ (5%≤ ++ <25%)”, the “PS: anti-psychotic” value is listed as “++ (5%≤ ++ <25%)” and the “SD: sedative hypnotic” value is “++ (5%≤ ++ <25%)”. Further, the “UN: uncharacterized CNS activity” value in assay [3] is on record as “+++ (25%≤ +++ <50%)”. The “AMPH: efficacious dose” value in assay [4] is reported as “+ (+ = 10-30 mg/kg)”.
Turning to `CNC[C@H]1OCCc2cc(F)ccc21` [Example 16, (S)-1-(6-fluoroisochroman-1-yl)-N-methylmethanamine], the minimal effective dose in assay [3] (setting [6]) fell in the range of 10 to 30 mg/kg. Further, in assay [3], the “AD: ADHD (SmartCube probability)” value is recorded as “+ (LOQ≤ + <5%)”, the “AG: analgesic (SmartCube probability)” value is “++ (5%≤ ++ <25%)”, the “AX: anxiolytic (SmartCube probability)” value is “++ (5%≤ ++ <25%)” and the “CE: cognitive enhancer” value is listed as “+ (LOQ≤ + <5%)”. In assay [3], the “DP: anti-depressant” value is given as “++ (5%≤ ++ <25%)”, the “MS: mood stabilizer” value is reported as “+ (LOQ≤ + <5%)”, the “PS: anti-psychotic” value is “+++ (25%≤ +++ <50%)” and the “SD: sedative hypnotic” value is recorded as “++ (5%≤ ++ <25%)”. Moreover, the “UN: uncharacterized CNS activity” value in assay [3] is on record as “+ (LOQ≤ + <5%)”.
On to `CNC[C@@H]1OCCc2ccc3c(c21)OCO3` [Example 2, (R)-1-(6,9-dihydro-7H-[1,3]dioxolo[4,5-h]isochromen-9-yl)-N-methylmethanamine], for which the “PCP: efficacious dose” value in assay [2] is “+++ (+++ = <1.0 mg/kg)”. For the same molecule, in assay [3], the minimal effective dose is less than 3 mg/kg, the “AD: ADHD (SmartCube probability)” value is given as “+ (LOQ≤ + <5%)”, the “AG: analgesic (SmartCube probability)” value is given as “++ (5%≤ ++ <25%)” and the “AX: anxiolytic (SmartCube probability)” value is listed as “++ (5%≤ ++ <25%)”. Also, in assay [3], the “CE: cognitive enhancer” value is “++ (5%≤ ++ <25%)”, the “DP: anti-depressant” value is “+++ (25%≤ +++ <50%)”, the “MS: mood stabilizer” value was “++ (5%≤ ++ <25%)” and the “PS: anti-psychotic” value is reported as “++ (5%≤ ++ <25%)”. For the same molecule, in assay [3], the “SD: sedative hypnotic” value is “+ (LOQ≤ + <5%)” and the “UN: uncharacterized CNS activity” value is listed as “+++ (25%≤ +++ <50%)”. Also, the “AMPH: efficacious dose” value in assay [4] was “NE”. The “FST: efficacious dose” value in assay [5] is on record as “+++ (+++ = <1.0 mg/kg)”.
Consider `CNC[C@@H]1OCCc2ccc(F)cc21` [Example 15, (R)-1-(7-fluoroisochroman-1-yl)-N-methylmethanamine], for which the minimal effective dose in assay [3] (setting [6]) is less than 3 mg/kg. In assay [3], the “AD: ADHD (SmartCube probability)” value is “+ (LOQ≤ + <5%)”, the “AG: analgesic (SmartCube probability)” value was “++ (5%≤ ++ <25%)”, the “AX: anxiolytic (SmartCube probability)” value is “++ (5%≤ ++ <25%)” and the “CE: cognitive enhancer” value is recorded as “++ (5%≤ ++ <25%)”. Further, in assay [3], the “DP: anti-depressant” value is reported as “++ (5%≤ ++ <25%)”, the “MS: mood stabilizer” value is on record as “++ (5%≤ ++ <25%)”, the “PS: anti-psychotic” value was “+++ (25%≤ +++ <50%)” and the “SD: sedative hypnotic” value is on record as “++ (5%≤ ++ <25%)”. Also, in assay [3], the “UN: uncharacterized CNS activity” value was “+++ (25%≤ +++ <50%)”.

The values are drawn from patent US10196403B2, “Compounds and compositions and uses thereof” (Sunovion Pharmaceuticals Inc., priority 2016, dated 2019).
